The structures appear in SMILES notation. Where only a bound is given, the exact number is not on record here.

The values that follow come from patent US20260008760A1, “DIPEPTIDYL PEPTIDASE 1 INHIBITORS AND USES THEREOF” (Insmed Incorporated, priority 2024, published 2026).

For one assay, the target named is human DPP1 enzyme (Homo sapiens, UniProt P53634). The assay is described as follows: Human DPP1 Enzyme Single-Point Percent Inhibition Testing (HL-60 lysate). The assay is classed as biochemical. The arrangement: A crude lysate of HL-60 cells (ATCC; Manassas, VA) was used as a source of human DPP1 enzyme; host or cells: HL-60 cells (crude lysate). Conditions: final compound concentration of 10 nM, 400 μM H-Gly-Arg-AMC, n = 1. On the procedure:
Example 98. Human DPP1 Enzyme Single-Point Percent Inhibition Testing
A crude lysate of HL-60 cells (ATCC; Manassas, VA) was used as a source of human DPP1 enzyme in the assay. Lysate was prepared in 1% Triton X-100 in PBS at a concentration of 20,000 live cells per μL of lysis buffer and was centrifuged at 16,000 rcf for 10 minutes at 4° C., after which supernatant was collected and flash-frozen in liquid nitrogen. Test articles were applied to human DPP1 enzyme in Assay Buffer (25 mM MES pH 6.0, 50 mM NaCl, 5 mM DTT) in a total reaction volume of 125 μL. 25 μL of compound diluted to 50 nM in Assay Buffer plus 5% DMSO was first added to 50 μL of HL-60 lysate diluted to contain a DPP1 enzyme concentration of roughly 1 ng/μL and allowed to pre-incubate for 10 minutes at 37° C. after which 50 μL of 1000 μM H-Gly-Arg-AMC substrate (Bachem; St. Torrance, CA) was added, giving final compound concentration of 10 nM, a final substrate concentration of 400 μM and a final DMSO concentration of 1%. Substrate cleavage was measured for 90 minutes at 37° C., with fluorescence at Excitation/Emission 350/450 nm measured every 5 minutes. DPP1 concentration was interpolated based on its activity relative to a standard curve of activated human recombinant DPP1 enzyme. Percent inhibition at 10 nM was calculated for each test article based on remaining DPP1 activity compared to enzyme activity in wells that received only vehicle control.

A further assay deals with DPP1 in HL-60 cells (Homo sapiens, UniProt P53634). In words: DPP1 Cell Single-Point Percent Inhibition Testing. The assay is classed as cell-based. The arrangement: host or cells: HL-60 cells. Conditions: final compound concentration 5 nM, n = 1. As for the experimental part:
Example 100. DPP1 Cell Single-Point Percent Inhibition Testing
HL-60 cells (ATCC; Manassas, VA) were maintained in RPMI-1640 supplemented with 20% heat-inactivated FBS and 1× Antibiotic Antimycotic (Cytiva; Marlborough, MA). Media was changed every three to four days and cells were not allowed to exceed 1×10^6 cells per mL. Prior to assay, cells were collected by centrifugation at 500 rcf for 3 minutes, resuspended in RPMI (with no additional supplements) and counted. Cells were diluted in RPMI to a concentration of 5×10^5 live cells per mL and transferred to black 96-well plates for assay, 60 μL per well. Test articles were diluted to 25 nM in RPMI plus 0.5% DMSO, and 20 μL was added to each assay well. Compound was allowed to pre-incubate with cells with gentle shaking at 100 rpm for 60 minutes at 37° C. in a cell culture incubator maintained at 5% CO2, after which 20 μL of 500 μM H-Gly-Phe-AFC cell-permeable substrate (MP Biomedicals; Solon, OH) in RPMI was added to each well, giving final compound concentration of 5 nM, a final substrate concentration of 100 μM and a final DMSO concentration of 0.1%. Plates were returned to the incubator with shaking at 100 rpm for 30 minutes, after which fluorescence was measured at Excitation/Emission 400/505 nm. Percent Inhibition was calculated from RFU values by first subtracting background values (wells in which RPMI was substituted for cells) from each well, and then subtracting background-subtracted RFU derived from wells that received a final concentration of 10 μM brensocatib. This value represents the non-specific substrate cleavage from the HL-60 cells, and the remaining RFU should theoretically be solely the contribution of DPP1 enzyme activity. The final percent inhibition value was calculated for each test article based on remaining RFU compared to RFU from wells that received only vehicle control.

DPP1 in HL-60 cells, sequence (P53634 25-463): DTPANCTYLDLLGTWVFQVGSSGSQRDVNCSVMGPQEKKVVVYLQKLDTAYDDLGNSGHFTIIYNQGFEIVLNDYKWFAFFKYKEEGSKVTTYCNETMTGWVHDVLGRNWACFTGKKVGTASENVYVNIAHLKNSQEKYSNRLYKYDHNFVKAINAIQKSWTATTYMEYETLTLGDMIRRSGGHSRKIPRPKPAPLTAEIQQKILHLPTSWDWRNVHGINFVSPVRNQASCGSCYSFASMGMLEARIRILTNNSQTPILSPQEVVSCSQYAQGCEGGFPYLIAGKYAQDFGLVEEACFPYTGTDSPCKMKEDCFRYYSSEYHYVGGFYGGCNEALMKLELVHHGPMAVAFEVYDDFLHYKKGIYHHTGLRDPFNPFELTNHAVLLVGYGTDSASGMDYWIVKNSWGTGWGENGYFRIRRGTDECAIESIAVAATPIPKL
human DPP1 enzyme, sequence (P53634 25-463): as above

In the case of `COC1CNC[C@@H](C(=O)N[C@H](C#N)Cc2ccc(-c3ccc4cnn(C5CCN(C)CC5)c4c3)cc2)OC1` (stereo partly drawn) [Compound H9], at human DPP1 enzyme, the inhibition (as a rule, the relative decrease from the control value, in per cent) at 0.01 µM was at least 66.7%. This compound also returned an inhibition at 0.005 µM on DPP1 in HL-60 cells of at most 76.5%.
`CO[C@@H]1CCNC[C@@H](C(=O)N[C@H](C#N)Cc2ccc(-c3ccc4c(n3)CCCN4)cc2F)OC1` [Compound A83] had an inhibition at 0.01 µM at human DPP1 enzyme of at least 66.7%. Further, at DPP1 in HL-60 cells, the inhibition at 0.005 µM is 76.5 to 93.9%.
On the same counts, the results for `CO[C@H]1CCO[C@H](C(=O)N[C@H](C#N)Cc2ccc(-c3ccc4c(c3)C3(CCCN(C)C3)C(=O)N4C)cc2)CNC1` (stereo partly drawn) [Compound F19] are 40 to 66.7% and at most 76.5%.
On the same counts, the results for `CO[C@H]1CCO[C@H](C(=O)N[C@H](C#N)Cc2ccc(-c3ccc4c(c3)C3(CCN(C)C3)OC4=O)cc2F)CNC1` (stereo partly drawn) [Compound F27] are at least 66.7% and at most 76.5%.
`CN1CC2(C1)OC(=O)c1ccc(-c3ccc(C[C@@H](C#N)NC(=O)[C@@H]4CNCCCCO4)cc3)cc12` [Compound 37] gave an inhibition at 0.01 µM against human DPP1 enzyme of at most 40%. The compound further displayed an inhibition at 0.005 µM against DPP1 in HL-60 cells of at most 76.5%.
Take `CN1CCN(Cc2ccc(-c3ccc(C[C@@H](C#N)NC(=O)[C@@H]4CNCCCCO4)cc3)cc2)CC1` [Compound 40]: the inhibition at 0.01 µM at human DPP1 enzyme is at most 40%. On DPP1 in HL-60 cells, this compound yielded an inhibition at 0.005 µM of at most 76.5%.
For `CO[C@@H]1CCNC[C@@H](C(=O)N[C@H](C#N)Cc2cc3c(cc2F)-c2ccc(C#N)cc2CO3)OC1` [Compound B20], in that order: at least 66.7% and at least 93.9%.
Take `CO[C@H]1CCO[C@H](C(=O)N[C@H](C#N)Cc2ccc(-c3ccc4nnn(C)c4c3)cc2F)CNC1` [Compound H20]: on human DPP1 enzyme, the inhibition at 0.01 µM was 40 to 66.7%. In addition, the inhibition at 0.005 µM on DPP1 in HL-60 cells is at most 76.5%.
In turn, `CO[C@@H]1CCNC[C@@H](C(=O)N[C@H](C#N)Cc2ccc(-c3ccc4c(c3)C3(CCN(C)C3)OC4=O)cc2F)OC1` (stereo partly drawn) [Compound F14] displayed an inhibition at 0.01 µM at human DPP1 enzyme of at least 66.7%. At DPP1 in HL-60 cells, the inhibition at 0.005 µM was at most 76.5%.
Consider `Cn1c(=O)oc2cc3c(cc21)-c1cc(F)c(CC(C#N)NC(=O)[C@@H]2CNCCCCO2)cc1OC3` (stereo partly drawn) [Compound C25], for which, at human DPP1 enzyme, the inhibition at 0.01 µM was at least 66.7%. The inhibition at 0.005 µM at DPP1 in HL-60 cells was 76.5 to 93.9%.
At human DPP1 enzyme, `Cc1nc(C)c2cc(-c3ccc(C[C@@H](C#N)NC(=O)[C@@H]4CN[C@@H](C)[C@@H](O)CO4)cc3)cn2c1C` [Compound A135] returned an inhibition at 0.01 µM of at most 40%. In addition, at DPP1 in HL-60 cells, the inhibition at 0.005 µM is at most 76.5%.
For the compound `CO[C@H]1CCO[C@H](C(=O)NC(C#N)Cc2cc3c(cc2F)-c2cc(C#N)ccc2CO3)CNC1` (stereo partly drawn) [Compound B25], the inhibition at 0.01 µM against human DPP1 enzyme is 40 to 66.7%. Moreover, the inhibition at 0.005 µM against DPP1 in HL-60 cells was at most 76.5%.
As for `Cc1cn2cc(-c3ccc(C[C@@H](C#N)NC(=O)[C@@H]4CN[C@@H](C)[C@H](O)CO4)cc3)cc2c(C)n1` [Compound A98], the inhibition at 0.01 µM at human DPP1 enzyme is at least 66.7%. The inhibition at 0.005 µM against DPP1 in HL-60 cells was at most 76.5%.
For `CO[C@@H]1CCNC[C@@H](C(=O)N[C@H](C#N)Cc2ccc(-c3ccc4c(c3)C3(CCN(C)C3)OC4=O)cc2)OC1` (stereo partly drawn) [Compound F8], in that order: at least 66.7% and at most 76.5%.
On human DPP1 enzyme, `C[C@@H]1NC[C@@H](C(=O)N[C@H](C#N)Cc2ccc(-c3ccc4nnn(C)c4c3)cc2)OC[C@@H]1O` [Compound H30] came in with an inhibition at 0.01 µM of at most 40%. At DPP1 in HL-60 cells, this compound registered an inhibition at 0.005 µM of at most 76.5%.
On to `CN1CCC(n2ncc3ccc(-c4ccc(C[C@@H](C#N)NC(=O)[C@@H]5CNCCCCO5)cc4)cc32)CC1` [Compound H33], for which, at human DPP1 enzyme, the inhibition at 0.01 µM is at most 40%. This compound registered an inhibition at 0.005 µM on DPP1 in HL-60 cells of at most 76.5%.
At human DPP1 enzyme, `N#C[C@H](Cc1ccc(-c2ccc3c(c2)C2(CCN(C4CCC4)CC2)OC3)cc1F)NC(=O)[C@@H]1CNCCCCO1` [Compound 44] had an inhibition at 0.01 µM of 40 to 66.7%. The same compound came in with an inhibition at 0.005 µM against DPP1 in HL-60 cells of at most 76.5%.
In the case of `CO[C@H]1CCO[C@H](C(=O)N[C@H](C#N)Cc2ccc(-c3ccn4ccnc4c3)cc2)CNC1` [Compound H41], on human DPP1 enzyme, the inhibition at 0.01 µM was at most 40%. In addition, the inhibition at 0.005 µM against DPP1 in HL-60 cells was at most 76.5%.
